How the values were obtained:
Experiment in all cases: scanMAX Kinase assay panel
Assay type in all cases: binding
Details in all cases: read-out: % control
[1] = target: PKNB(M. tuberculosis) (Mycobacterium tuberculosis (strain ATCC 25618 / H37Rv), UniProt P9WI81)
Description: (§1) Particularly, the compounds of Examples 18 and 57 were selected among all of those compounds of the present invention. DiscoverX Co. was asked to measure the enzyme (kinase) selectivity, and the experiment was performed using scanMAX™ Kinase assay panel.
(§2) At this time, the concentration of the drug treated to each enzyme was 1 uM in DMSO and the control percentage (% control) was determined by the following Equation 1. (Example Compound−Positive Control)/(Negative Control−Positive Control)×100 [Equation 1]
(§3) Herein, the positive control indicates the compound showing the % control of 0%, and the negative control indicates DMSO showing the % control of 100%. The enzyme selectivity in the present invention is defined as follows: When the % control for each enzyme is less than 35% (<35%), it is judged that the compound has the activity to the corresponding enzyme.

[2] = target: CDC2L5 (Homo sapiens (Human), UniProt Q14004)
Description: as §1, §2, §3

[3] = target: PFCDPK1(P. falciparum) (Plasmodium falciparum (isolate 3D7), UniProt P62344)
Description: as §1, §2, §3

[4] = target: PRP4 (Homo sapiens (Human), UniProt Q13523)
Description: as §1, §2, §3

[5] = target: PFPK5(P. falciparum) (Plasmodium falciparum (isolate 3D7), UniProt P61075)
Description: as §1, §2, §3

[6] = target: RSK2(Kin.Dom.1-N-terminal) (Homo sapiens (Human), UniProt P51812)
Chain of RSK2(Kin.Dom.1-N-terminal) (P51812 68-327): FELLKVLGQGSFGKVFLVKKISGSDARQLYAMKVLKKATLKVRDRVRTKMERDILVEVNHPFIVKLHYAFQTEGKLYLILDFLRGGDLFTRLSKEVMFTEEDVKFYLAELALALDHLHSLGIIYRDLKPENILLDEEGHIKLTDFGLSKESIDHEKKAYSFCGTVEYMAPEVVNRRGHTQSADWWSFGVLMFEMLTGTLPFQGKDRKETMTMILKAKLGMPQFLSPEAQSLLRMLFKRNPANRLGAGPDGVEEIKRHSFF
In short: (§4)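 Measurements came from scanMAX kinase selectivity profiling. Each value was normalised by subtracting the positive control and dividing by the span between the DMSO vehicle and the positive control, then multiplied by 100.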

[7] = target: PAK1 (Homo sapiens (Human), UniProt Q13153)
In short: as §4

[8] = target: PLK3 (Homo sapiens (Human), UniProt Q9H4B4)
In short: as §4

[9] = target: LRRK2(G2019S) (Homo sapiens (Human), UniProt Q5S007, G2019S)
In short: as §4

[10] = target: CDKL2 (Homo sapiens (Human), UniProt Q92772)
Chain of CDKL2 (Q92772 whole entry): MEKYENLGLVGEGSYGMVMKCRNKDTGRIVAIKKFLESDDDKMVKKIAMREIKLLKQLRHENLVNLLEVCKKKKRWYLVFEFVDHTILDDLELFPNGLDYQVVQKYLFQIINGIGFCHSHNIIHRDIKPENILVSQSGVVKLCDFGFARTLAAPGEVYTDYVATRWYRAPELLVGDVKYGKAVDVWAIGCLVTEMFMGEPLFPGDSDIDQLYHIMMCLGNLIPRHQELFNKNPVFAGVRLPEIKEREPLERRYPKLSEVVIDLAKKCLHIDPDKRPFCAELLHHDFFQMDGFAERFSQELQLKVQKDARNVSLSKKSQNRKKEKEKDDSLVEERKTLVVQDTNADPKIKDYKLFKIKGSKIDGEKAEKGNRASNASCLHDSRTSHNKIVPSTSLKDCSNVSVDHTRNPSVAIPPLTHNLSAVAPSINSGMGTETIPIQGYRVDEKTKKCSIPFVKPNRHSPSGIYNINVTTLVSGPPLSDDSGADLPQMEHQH
In short: as §4

[11] = target: MEK2 (Homo sapiens (Human), UniProt P36507)
In short: as §4

[12] = target: CASK (Homo sapiens (Human), UniProt O14936)
In short: as §4

[13] = target: SBK1 (Homo sapiens (Human), UniProt Q52WX2)
In short: as §4

[14] = target: TNNI3K (Homo sapiens (Human), UniProt Q59H18)
In short: as §4

[15] = target: PKN2 (Homo sapiens (Human), UniProt Q16513)
In short: as §4

[16] = target: RET(M918T) (Homo sapiens (Human), UniProt P07949, M918T)
In short: as §4

[17] = target: RSK1(Kin.Dom.2-C-terminal) (Homo sapiens (Human), UniProt Q15418)
In short: as §4

[18] = target: BLK (Homo sapiens (Human), UniProt P51451)
In short: as §4

[19] = target: CAMK2B (Homo sapiens (Human), UniProt Q13554)
In short: as §4

[20] = target: GRK4 (Homo sapiens (Human), UniProt P32298)
In short: as §4

[21] = target: TAK1 (Homo sapiens (Human), UniProt O43318)
In short: as §4

[22] = target: MELK (Homo sapiens (Human), UniProt Q14680)
In short: as §4

[23] = target: PIK3CA(C420R) (Homo sapiens (Human), UniProt P42336, C420R)
Chain of PIK3CA(C420R) (P42336 whole entry C420R): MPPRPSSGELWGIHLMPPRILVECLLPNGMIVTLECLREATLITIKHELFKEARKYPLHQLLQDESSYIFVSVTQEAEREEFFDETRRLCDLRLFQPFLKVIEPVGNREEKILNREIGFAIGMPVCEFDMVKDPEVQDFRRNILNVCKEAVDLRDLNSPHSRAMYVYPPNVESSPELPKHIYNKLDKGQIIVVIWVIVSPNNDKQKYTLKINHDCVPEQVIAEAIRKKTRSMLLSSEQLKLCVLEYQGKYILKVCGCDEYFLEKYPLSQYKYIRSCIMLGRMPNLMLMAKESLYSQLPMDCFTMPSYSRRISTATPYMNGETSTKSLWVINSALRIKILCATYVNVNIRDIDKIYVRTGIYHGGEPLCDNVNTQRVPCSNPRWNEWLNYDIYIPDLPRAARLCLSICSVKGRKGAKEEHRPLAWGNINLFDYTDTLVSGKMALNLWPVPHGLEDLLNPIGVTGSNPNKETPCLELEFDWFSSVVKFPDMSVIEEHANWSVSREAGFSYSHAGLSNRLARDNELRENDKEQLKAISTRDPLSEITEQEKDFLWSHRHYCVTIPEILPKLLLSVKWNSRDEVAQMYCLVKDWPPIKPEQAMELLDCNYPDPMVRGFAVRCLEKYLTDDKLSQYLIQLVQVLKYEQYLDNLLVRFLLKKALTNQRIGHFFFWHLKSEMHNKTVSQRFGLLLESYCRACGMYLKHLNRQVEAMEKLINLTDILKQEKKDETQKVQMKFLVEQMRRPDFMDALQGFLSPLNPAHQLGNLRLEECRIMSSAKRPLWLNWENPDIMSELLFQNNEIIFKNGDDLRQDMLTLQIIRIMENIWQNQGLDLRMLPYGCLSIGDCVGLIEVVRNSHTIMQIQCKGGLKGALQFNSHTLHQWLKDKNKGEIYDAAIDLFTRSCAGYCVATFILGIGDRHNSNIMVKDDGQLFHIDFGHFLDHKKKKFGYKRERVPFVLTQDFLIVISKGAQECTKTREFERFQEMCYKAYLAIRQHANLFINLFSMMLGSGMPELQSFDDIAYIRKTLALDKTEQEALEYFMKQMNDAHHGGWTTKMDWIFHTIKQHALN
In short: as §4

[24] = target: MLK1 (Homo sapiens (Human), UniProt P80192)
In short: as §4

[25] = target: PIK3CA(M1043I) (Homo sapiens (Human), UniProt P42336, M1043I)
Chain of PIK3CA(M1043I) (P42336 whole entry M1043I): as the sequence (P42336 whole entry C420R) above, with R420C, M1043I counted along it
In short: as §4

[26] = target: FLT3(D835V) (Homo sapiens (Human), UniProt P36888, D835V)
In short: as §4

[27] = target: SRPK1 (Homo sapiens (Human), UniProt Q96SB4)
Chain of SRPK1 (Q96SB4 whole entry): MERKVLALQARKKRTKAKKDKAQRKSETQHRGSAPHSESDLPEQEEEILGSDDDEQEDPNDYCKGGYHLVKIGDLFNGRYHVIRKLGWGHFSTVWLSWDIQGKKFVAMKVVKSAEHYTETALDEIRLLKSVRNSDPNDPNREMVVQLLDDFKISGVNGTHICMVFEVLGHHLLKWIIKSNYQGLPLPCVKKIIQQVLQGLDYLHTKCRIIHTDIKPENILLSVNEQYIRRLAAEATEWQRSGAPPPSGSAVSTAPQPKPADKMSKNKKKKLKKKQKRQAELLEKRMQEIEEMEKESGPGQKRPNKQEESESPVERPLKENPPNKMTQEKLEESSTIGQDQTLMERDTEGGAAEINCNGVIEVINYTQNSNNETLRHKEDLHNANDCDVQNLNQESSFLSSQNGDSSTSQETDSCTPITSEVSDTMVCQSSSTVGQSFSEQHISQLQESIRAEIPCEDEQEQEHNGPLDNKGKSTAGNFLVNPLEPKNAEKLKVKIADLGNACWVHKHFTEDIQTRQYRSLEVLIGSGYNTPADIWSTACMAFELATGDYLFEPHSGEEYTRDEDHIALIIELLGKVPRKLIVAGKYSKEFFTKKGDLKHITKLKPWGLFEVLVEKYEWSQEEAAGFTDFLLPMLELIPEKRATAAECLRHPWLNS
In short: as §4

[28] = target: JAK2(JH1domain-catalytic) (Homo sapiens (Human), UniProt O60674)
Chain of JAK2(JH1domain-catalytic) (O60674 849-1124): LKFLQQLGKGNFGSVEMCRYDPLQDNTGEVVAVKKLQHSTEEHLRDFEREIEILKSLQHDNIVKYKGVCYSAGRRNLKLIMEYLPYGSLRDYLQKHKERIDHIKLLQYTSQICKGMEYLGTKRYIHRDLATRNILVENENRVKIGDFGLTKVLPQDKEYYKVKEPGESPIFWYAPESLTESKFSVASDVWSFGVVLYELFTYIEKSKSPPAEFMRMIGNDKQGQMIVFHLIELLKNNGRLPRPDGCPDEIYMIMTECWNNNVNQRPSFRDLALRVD
In short: as §4

[29] = target: PLK2 (Homo sapiens (Human), UniProt Q9NYY3)
Chain of PLK2 (Q9NYY3 whole entry): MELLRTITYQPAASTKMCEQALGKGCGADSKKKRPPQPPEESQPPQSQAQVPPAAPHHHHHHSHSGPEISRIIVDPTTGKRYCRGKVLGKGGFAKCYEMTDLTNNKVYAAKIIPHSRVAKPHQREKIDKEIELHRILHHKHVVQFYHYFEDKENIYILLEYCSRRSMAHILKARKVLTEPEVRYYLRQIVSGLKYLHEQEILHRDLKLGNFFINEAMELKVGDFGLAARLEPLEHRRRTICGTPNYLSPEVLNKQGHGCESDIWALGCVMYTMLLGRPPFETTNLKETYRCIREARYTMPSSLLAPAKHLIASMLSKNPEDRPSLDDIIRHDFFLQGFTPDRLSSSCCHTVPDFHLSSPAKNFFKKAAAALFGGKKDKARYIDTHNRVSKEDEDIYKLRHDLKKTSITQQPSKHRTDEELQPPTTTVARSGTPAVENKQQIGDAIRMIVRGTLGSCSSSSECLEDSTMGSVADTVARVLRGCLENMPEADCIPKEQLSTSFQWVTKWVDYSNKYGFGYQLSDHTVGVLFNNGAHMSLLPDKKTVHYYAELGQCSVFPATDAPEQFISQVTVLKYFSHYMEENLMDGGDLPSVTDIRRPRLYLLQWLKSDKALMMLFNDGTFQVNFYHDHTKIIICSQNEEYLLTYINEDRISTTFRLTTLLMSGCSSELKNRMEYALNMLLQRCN
In short: as §4

[30] = target: TIE1 (Homo sapiens (Human), UniProt P35590)
In short: as §4

[31] = target: MTOR (Homo sapiens (Human), UniProt P42345)
In short: as §4

[32] = target: INSRR (Homo sapiens (Human), UniProt P14616)
In short: as §4

[33] = target: INSR (Homo sapiens (Human), UniProt P06213)
Chain of INSR (P06213 28-1382): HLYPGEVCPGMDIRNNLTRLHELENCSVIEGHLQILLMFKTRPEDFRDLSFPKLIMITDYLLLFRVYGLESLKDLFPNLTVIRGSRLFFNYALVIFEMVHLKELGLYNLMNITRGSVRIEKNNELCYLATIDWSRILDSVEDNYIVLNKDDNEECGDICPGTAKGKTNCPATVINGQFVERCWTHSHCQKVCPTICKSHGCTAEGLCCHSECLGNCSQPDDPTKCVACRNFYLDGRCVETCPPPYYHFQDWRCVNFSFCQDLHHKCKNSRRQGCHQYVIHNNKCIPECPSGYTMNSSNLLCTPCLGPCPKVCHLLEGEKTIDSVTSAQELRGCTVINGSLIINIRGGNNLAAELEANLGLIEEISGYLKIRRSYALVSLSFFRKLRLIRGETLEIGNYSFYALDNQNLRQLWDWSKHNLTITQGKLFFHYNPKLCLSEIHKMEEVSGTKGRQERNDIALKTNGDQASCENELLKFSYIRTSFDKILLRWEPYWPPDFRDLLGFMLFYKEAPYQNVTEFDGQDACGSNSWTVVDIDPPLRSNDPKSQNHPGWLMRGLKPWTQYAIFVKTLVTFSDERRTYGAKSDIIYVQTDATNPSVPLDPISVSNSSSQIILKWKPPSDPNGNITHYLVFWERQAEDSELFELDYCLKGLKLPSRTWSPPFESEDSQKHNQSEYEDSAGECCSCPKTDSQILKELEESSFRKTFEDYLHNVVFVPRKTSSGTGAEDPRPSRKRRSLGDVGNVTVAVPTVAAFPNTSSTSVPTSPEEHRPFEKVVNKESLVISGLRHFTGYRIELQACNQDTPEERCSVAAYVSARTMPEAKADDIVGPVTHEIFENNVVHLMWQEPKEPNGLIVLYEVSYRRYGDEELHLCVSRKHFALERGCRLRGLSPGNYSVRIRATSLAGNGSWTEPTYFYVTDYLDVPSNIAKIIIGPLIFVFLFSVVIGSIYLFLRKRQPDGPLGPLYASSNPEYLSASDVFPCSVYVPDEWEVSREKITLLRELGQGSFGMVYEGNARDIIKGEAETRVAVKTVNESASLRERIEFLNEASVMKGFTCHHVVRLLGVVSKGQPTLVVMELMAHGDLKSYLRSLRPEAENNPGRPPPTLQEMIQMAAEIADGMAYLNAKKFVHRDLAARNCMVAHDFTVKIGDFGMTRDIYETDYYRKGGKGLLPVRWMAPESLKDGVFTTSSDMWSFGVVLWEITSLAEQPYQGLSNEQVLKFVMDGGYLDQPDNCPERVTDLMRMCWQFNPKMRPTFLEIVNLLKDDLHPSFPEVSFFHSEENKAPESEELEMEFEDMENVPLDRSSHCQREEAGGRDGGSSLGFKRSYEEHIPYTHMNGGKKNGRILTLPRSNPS
In short: as §4

Question: `CCNc1cc(Nc2ccc(C(=O)N3CCC(N4CCOCC4)CC3)cc2OC)nc2[nH]cc(C(F)(F)F)c12` [Example 57, (4-((4-(ethylamino)-3-(trifluoromethyl)-1H-pyrrolo[2,3-b]pyridin-6-yl)amino)-3-methoxyphenyl) (4-morpholinopiperidin-1-yl)methanone] was tested. Which remaining binding at 1 µM [1] did it give?
Answer: The remaining binding at 1 µM was 100%.

Question: What about the remaining binding at 1 µM [2] of the same molecule?
Answer: Its remaining binding at 1 µM is 92%.

Question: What about the remaining binding at 1 µM [3] of the same molecule?
Answer: The remaining binding at 1 µM was 98%.

Question: And the remaining binding at 1 µM [4]?
Answer: Its remaining binding at 1 µM is 91%.

Question: And the remaining binding at 1 µM [5]?
Answer: Its remaining binding at 1 µM is 98%.

Question: What about the remaining binding at 1 µM [6] of the same molecule?
Answer: The remaining binding at 1 µM was 96%.

Question: And the remaining binding at 1 µM [7]?
Answer: The remaining binding at 1 µM was 73%.

Question: What about the remaining binding at 1 µM [8] of the same molecule?
Answer: Its remaining binding at 1 µM is 98%.

Question: And the remaining binding at 1 µM [9]?
Answer: Its remaining binding at 1 µM is 27%.

Question: And the remaining binding at 1 µM [10]?
Answer: Its remaining binding at 1 µM is 90%.

Question: What about the remaining binding at 1 µM [11] of the same molecule?
Answer: Its remaining binding at 1 µM is 100%.

Question: What about the remaining binding at 1 µM [12] of the same molecule?
Answer: The remaining binding at 1 µM was 88%.

Question: What about the remaining binding at 1 µM [13] of the same molecule?
Answer: The remaining binding at 1 µM was 90%.

Question: And the remaining binding at 1 µM [14]?
Answer: The remaining binding at 1 µM was 100%.

Question: And the remaining binding at 1 µM [15]?
Answer: Its remaining binding at 1 µM is 92%.

Question: And the remaining binding at 1 µM [16]?
Answer: Its remaining binding at 1 µM is 100%.

Question: And the remaining binding at 1 µM [17]?
Answer: Its remaining binding at 1 µM is 77%.

Question: And the remaining binding at 1 µM [18]?
Answer: The remaining binding at 1 µM was 73%.

Question: And the remaining binding at 1 µM [19]?
Answer: The remaining binding at 1 µM was 80%.

Question: And the remaining binding at 1 µM [20]?
Answer: Its remaining binding at 1 µM is 100%.

Question: What about the remaining binding at 1 µM [21] of the same molecule?
Answer: The remaining binding at 1 µM was 79%.

Question: And the remaining binding at 1 µM [22]?
Answer: The remaining binding at 1 µM was 69%.

Question: And the remaining binding at 1 µM [23]?
Answer: Its remaining binding at 1 µM is 100%.

Question: What about the remaining binding at 1 µM [24] of the same molecule?
Answer: Its remaining binding at 1 µM is 100%.

Question: What about the remaining binding at 1 µM [25] of the same molecule?
Answer: The remaining binding at 1 µM was 99%.

Question: And the remaining binding at 1 µM [26]?
Answer: The remaining binding at 1 µM was 92%.

Question: What about the remaining binding at 1 µM [27] of the same molecule?
Answer: The remaining binding at 1 µM was 85%.

Question: And the remaining binding at 1 µM [28]?
Answer: The remaining binding at 1 µM was 100%.

Question: And the remaining binding at 1 µM [29]?
Answer: The remaining binding at 1 µM was 90%.

Question: And the remaining binding at 1 µM [30]?
Answer: Its remaining binding at 1 µM is 100%.

Question: What about the remaining binding at 1 µM [31] of the same molecule?
Answer: Its remaining binding at 1 µM is 88%.

Question: And the remaining binding at 1 µM [32]?
Answer: Its remaining binding at 1 µM is 60%.

Question: And the remaining binding at 1 µM [33]?
Answer: Its remaining binding at 1 µM is 48%.

Question: Which remaining binding at 1 µM [1] does the source give for `CCNc1cc(Nc2ccc(C(=O)N3CCC(N4CCOCC4)CC3)cc2OC)nc2[nH]cc(C#N)c12` [Example 18, 4-(ethylamino)-6-((2-methoxy-4-(4-morpholinopiperidine-1-carbonyl)phenyl)amino)-1H-pyrrolo[2,3-b]pyridine-3-carbonitrile] here?
Answer: The remaining binding at 1 µM was 82%.

Question: And the remaining binding at 1 µM [2]?
Answer: Its remaining binding at 1 µM is 100%.

Question: And the remaining binding at 1 µM [3]?
Answer: Its remaining binding at 1 µM is 72%.

Question: What about the remaining binding at 1 µM [4] of the same molecule?
Answer: Its remaining binding at 1 µM is 100%.

Question: And the remaining binding at 1 µM [5]?
Answer: The remaining binding at 1 µM was 98%.

Question: What about the remaining binding at 1 µM [6] of the same molecule?
Answer: Its remaining binding at 1 µM is 78%.

Question: And the remaining binding at 1 µM [7]?
Answer: The remaining binding at 1 µM was 92%.

Question: And the remaining binding at 1 µM [8]?
Answer: Its remaining binding at 1 µM is 79%.

Question: And the remaining binding at 1 µM [9]?
Answer: Its remaining binding at 1 µM is 0.6%.

Question: What about the remaining binding at 1 µM [10] of the same molecule?
Answer: Its remaining binding at 1 µM is 100%.

Question: And the remaining binding at 1 µM [11]?
Answer: Its remaining binding at 1 µM is 26%.

Question: And the remaining binding at 1 µM [12]?
Answer: The remaining binding at 1 µM was 76%.

Question: What about the remaining binding at 1 µM [13] of the same molecule?
Answer: The remaining binding at 1 µM was 86%.

Question: And the remaining binding at 1 µM [14]?
Answer: Its remaining binding at 1 µM is 91%.

Question: What about the remaining binding at 1 µM [15] of the same molecule?
Answer: The remaining binding at 1 µM was 92%.

Question: What about the remaining binding at 1 µM [16] of the same molecule?
Answer: Its remaining binding at 1 µM is 99%.

Question: What about the remaining binding at 1 µM [17] of the same molecule?
Answer: Its remaining binding at 1 µM is 64%.

Question: And the remaining binding at 1 µM [18]?
Answer: Its remaining binding at 1 µM is 99%.

Question: And the remaining binding at 1 µM [19]?
Answer: Its remaining binding at 1 µM is 73%.

Question: What about the remaining binding at 1 µM [20] of the same molecule?
Answer: Its remaining binding at 1 µM is 100%.

Question: What about the remaining binding at 1 µM [21] of the same molecule?
Answer: Its remaining binding at 1 µM is 59%.

Question: And the remaining binding at 1 µM [22]?
Answer: The remaining binding at 1 µM was 62%.

Question: What about the remaining binding at 1 µM [23] of the same molecule?
Answer: Its remaining binding at 1 µM is 87%.

Question: And the remaining binding at 1 µM [24]?
Answer: Its remaining binding at 1 µM is 100%.

Question: And the remaining binding at 1 µM [25]?
Answer: Its remaining binding at 1 µM is 100%.

Question: And the remaining binding at 1 µM [26]?
Answer: Its remaining binding at 1 µM is 74%.

Question: And the remaining binding at 1 µM [27]?
Answer: Its remaining binding at 1 µM is 89%.

Question: And the remaining binding at 1 µM [28]?
Answer: Its remaining binding at 1 µM is 70%.

Question: What about the remaining binding at 1 µM [29] of the same molecule?
Answer: The remaining binding at 1 µM was 81%.

Question: And the remaining binding at 1 µM [30]?
Answer: Its remaining binding at 1 µM is 88%.

Question: What about the remaining binding at 1 µM [31] of the same molecule?
Answer: The remaining binding at 1 µM was 86%.

Question: And the remaining binding at 1 µM [32]?
Answer: The remaining binding at 1 µM was 24%.

Question: What about the remaining binding at 1 µM [33] of the same molecule?
Answer: The remaining binding at 1 µM was 36%.
